Assay results as given in patent US7253138B2, “Corrosion and gas hydrate inhibitors having improved water solubility and increased biodegradability” (Clariant Produkte (Deutschland) GmbH, priority 2003, dated 2007).

Key:
[1] = LPR test (corrosion inhibition, test conditions similar to ASTM D 2776)
Procedure: The products were also tested in the LPR test (test conditions similar to ASTM D 2776).

[2] = Shell wheel test (corrosion inhibition); settings: salt water/petroleum mixture (9:1.5% NaCl solution, pH 3.5 with acetic acid), 40 rpm, 70° C., 24 hours; 50 ppm of a 40% solution of the inhibitor; from mass reduction vs blank
Procedure: The compounds according to the invention were tested as corrosion inhibitors in the Shell wheel test. Coupons of carbon steel (DIN 1.1203 having 15 cm^2 surface area) were immersed in a salt water/petroleum mixture (9:1.5% NaCl solution, adjusted to pH 3.5 using acetic acid) and subjected to this medium at a rotation rate of 40 rpm at 70° C. for 24 hours. The dosage of the inhibitor was 50 ppm of a 40% solution of the inhibitor. The protection values were calculated from the mass reduction of the coupons, based on a blank value.
In the table which follows, “comparison” refers to a commercial soya fatty acid amidopropyl-N,N-dimethylammonium carboxymethyl betaine described by EP-B-0 446 616 (prior art corrosion inhibitor).

Agitation foam method = assay type: physicochemical; settings: 50 ml of a 3% aqueous solution in demineralized water, agitated 20 times within 10 sec in closed 100 ml cylinder
Procedure: The foam properties were tested with the agitation foam method. To this end, 50 ml of a 3% aqueous solution of the appropriate corrosion inhibitor in demineralized water were agitated in a closed 100 ml measuring cylinder 20 times within 10 sec. On completion of the agitation, the foaming behavior was assessed using the total volume of the solution (foam height) and the foam decomposition time (time until attainment of the starting volume of 50 ml).

Substance	Protection after 10 min [1]	Protection after 30 min [1]	Protection after 60 min [1]	ø Protection % [2]	Foaming behavior (Agitation foam method)
Dodecenyl-/tetradecenylsuccinimido-N,N-dimethylpropylammonium N-methylcarboxyl betaine [Betaine from example 7]	72.5%	92.0%	98.1%	84.9%	–
Pentapropylenesuccinimido-N,N-dimethylpropylammonium N-methylcarboxyl betaine [Betaine from example 9]	77.9%	94.0%	99.8%	90.4%	Weakly foaming
Polyisobutenylsuccinimido-N,N-dimethylpropylammonium N-methyl-carboxyl betaine [Betaine from example 10]	79.1%	92.3%	99.2%	90.1%	Weakly foaming
Polyisobutenylsuccinimido-N,N-dimethylpropylammonium N-methyl-carboxyl betaine [Betaine from example 11]	61.9%	70.6%	80.6%	80.6%	Weakly foaming
Polyisobutenylsuccinimido-N,N-dimethylpropylammonium N-methyl-carboxyl betaine [Betaine from example 12]	70.0%	79.4%	86.3%	82.7%	–
Tetrapropylenesuccinimido-N,N-dimethylpropylammonium N-methylcarboxyl betaine [Betaine from example 8]	74.0%	81.3%	84.9%	84.0%	–
soya fatty acid amidopropyl-N,N-dimethylammonium carboxymethyl betaine [Comparison, reference compound]	45.9%	59.2%	64.2%	75.4%	Strongly foaming
